In patent publication US20230348477A1, “ORGANIC COMPOUND, LIGHT-EMITTING DEVICE, LIGHT-EMITTING APPARATUS, AND ELECTRONIC DEVICE” (SEMICONDUCTOR ENERGY LABORATORY CO., LTD., priority 2022, published 2023):
In brackets after ≈: the same amount, converted by molar mass. Entries after “also recorded” stand apart in the source; their conditions may differ.

Legend:
[1] = Solubility test in water by visual inspection; assay type: physicochemical; details: room temperature, one atmosphere; for solubility in water, result in words (visual inspection): about 1.2 mg sample, water added in 10 mL steps (tip compounds)
Procedure: (§1) In this example, the organic compounds synthesized in Examples 1 and 2 are used to explain the solubility of the organic compound of one embodiment of the present invention. The solubility tests of this example were performed at room temperature (RT) at one atmosphere.
(§2) Into a 110 mL sample bottle, 1.21 mg of 2,6tip2Py was put and 10 mL of water was added thereto. This mixture was irradiated with ultrasonic waves for one minute. A precipitated white powder was found by visual inspection for an insoluble residue. After further addition of 10 mL of water and one-minute ultrasonic wave irradiation, a precipitated white powder was found by visual inspection. This procedure was repeated until the dissolution was confirmed by visual inspection.
Into a 110 mL sample bottle, 1.23 mg of 2,7tip2SF was put and 10 mL of water was added thereto. This mixture was irradiated with ultrasonic waves for one minute. A precipitated white powder was found by visual inspection for an insoluble residue. After further addition of 10 mL of water and one-minute ultrasonic wave irradiation, a precipitated pale yellow powder was found by visual inspection. This procedure was repeated until the dissolution was confirmed by visual inspection.
Into a 5 mL sample bottle, 50.2 mg of 1,1′-pyridine-2,6-diyl-bis(1,3,4,6,7,8-hexahydro-2H-pyrimido[1,2-a]pyrimidine) (abbreviation: hpp2Py) having a structure where a hydropyrimidine ring is substituted for the imidazole ring of the guanidine skeleton in 2,6tip2Py, which is an organic compound of one embodiment of the present invention, was put, and 1.0 mL of water was added thereto. The dissolution was found by visual inspection for an insoluble residue.
as §2, with “20” for “110”, “1.16” for “1.21”, “1,1′-(9,9′-spirobi[9H-fluorene]-2,7-diyl)bis(1,3,4,6,7,8-hexahydro-2H-pyrimido[1,2-a]pyrimidine) (abbreviation: 2,7hpp2SF) having a structure where a hydropyrimidine ring is substituted for the imidazole ring of the guanidine skeleton in 2,7tip2SF, which is an organic compound of one embodiment of the present invention,” for “2,6tip2Py”, “put,” for “put”, “0.5” for “10”
The precipitated white powder was found until the total amount of water reached 3.0 mL. After further addition of 0.5 mL of water and ultrasonic wave irradiation, no precipitated white powder was found.

[2] = Solubility test in water by LC/MS; assay type: physicochemical; details: room temperature, one atmosphere; for solubility in water, result in words (LC/MS): 1 mg in 1 mL water
Procedure: as §1
In the LC-MS analysis, liquid chromatography (LC) separation was carried out with ACQUITY UPLC manufactured by Waters Corporation, and MS analysis (mass spectrometry) was carried out with Xevo G2 Tof MS manufactured by Waters Corporation. Acquity UPLC BEH C8 (2.1 × 100 mm, 1.7 µm) was used as a column for the LC separation. Acetonitrile was used for Mobile Phase A and a 0.1 % aqueous solution of formic acid was used for Mobile Phase B. The amount of injection of the sample was 5.0 µL. Note that in the analysis, the wavelength of a photodiode array detector was set to 270 nm.
Into a 5 mL sample bottle, 1 mg of 2,6tip2Py was put and 1 mL of chloroform was added thereto. This mixture was irradiated with ultrasonic waves for five minutes. After it was confirmed that the solid was completely dissolved, this solution was diluted by five times with acetonitrile, whereby the concentration of the solution was adjusted to 200 mg/L. This solution was diluted with acetonitrile, whereby a solution with a concentration of 40 mg/L, a solution with a concentration of 20 mg/L, and a solution with a concentration of 10 mg/L were prepared. The prepared solutions were subjected to LC/MS, and the peak area values derived from 2,6tip2Py, which were obtained at the respective solution concentrations, were used to form calibration curves.
Into a 5 mL sample bottle, 1 mg of 2,6tip2Py was put and 1 mL of water was added thereto. This mixture was irradiated with ultrasonic waves for five minutes. This mixture was filtered through a membrane filter to remove the solid, and the resulting filtrate was diluted by five times with acetonitrile. The obtained solution was subjected to LC/MS.
Into a 5 mL sample bottle, 1 mg of 2,7tip2SF was put and 1 mL of water was added thereto. This mixture was irradiated with ultrasonic waves for five minutes. […]

weight dissolved in 1.0 mL of water ([1]; ultrasonic irradiation, visual inspection, per 1.0 mL of water)	solubility at 5 min ([2]; thermodynamic from solid, filtrate quantified by LC/MS against calibration curve, read-out: solubility in 1 mL of water)	SMILES	solubility in water, result in words (visual inspection) [1]	solubility in water, result in words (LC/MS) [2]
–	–	c1ccc2c(c1)-c1ccccc1C21c2cc(N3CCCN4CCCN=C43)ccc2-c2ccc(N3CCCN4CCCN=C43)cc21 [2,7hpp2SF, 1,1′-(9,9′-spirobi[9H-fluorene]-2,7-diyl)bis(1,3,4,6,7,8-hexahydro-2H-pyrimido[1,2-a]pyrimidine)]	high solubility in water	–
–	–	c1ccc2c(c1)-c1ccccc1C21c2cc(N3CCCn4ccnc43)ccc2-c2ccc(N3CCCn4ccnc43)cc21 [2,7tip2SF, 8,8′-(9,9′-spirobi[9H-fluorene]-2,7-diyl)bls(5,6,7,8-tetrahydrolmidazo[1,2-a]pyrimidine)]	precipitated pale yellow powder was found until the total amount of water reached 100 mL	insoluble in water; also recorded: very low solubility in water
greater than or equal to 50.2 mg	–	c1cc(N2CCCN3CCCN=C32)nc(N2CCCN3CCCN=C32)c1 [hpp2Py, 1,1′-pyridine-2,6-diyl-bis(1,3,4,6,7,8-hexahydro-2H-pyrimido[1,2-a]pyrimidine)]	high solubility in water	–
–	18 µg/mL (≈ 56 µM)	c1cc(N2CCCn3ccnc32)nc(N2CCCn3ccnc32)c1 [2,6tip2Py, 8,8′-pyridine-2,6-diyl-bis(5,6,7,8-tetrahydroimidazo[1,2-a]pyrimidine)]	precipitated white powder was found until the total amount of water reached 100 mL	very low solubility in water
